Assay results as given in US10028992B2, “Methods of treating muscular dystrophy” (BOARD OF REGENTS OF THE NEVADA SYSTEM OF HIGHER EDUCATION …, priority 2012, dated 2018).
pEC50: −log10 of the molar value. Like-named read-outs stand apart in the source and are kept apart here. One block for each molecule: values may come before it.

Assays:
α7 integrin [1] = assay: western analysis of α7 integrin in DMD myoblasts/myotubes; assay type: cell-based, human; details: 2,2-dipyridyl 31.25 μM, deferoxamine 5 and 10 μM, 132 hrs
Method: (§1) FIGS. 13A-13D illustrate western blot studies in which protein extracts from C2C12 (A, B) and DMD (C, D) myoblasts were first treated with PBS or 100 nM LAM-111 and then subjected to western analysis of the α7B integrin and the Cox-1 loading standard. *=p<0.05.
Protein was extracted from the cells and subjected to western blotting using antibodies against α7 integrin. α-tubulin was used as a loading control.
(§2) It is contemplated that the identified parent scaffolds (Tables 8 and 9) increase α7 integrin expression through a similar mechanism.

α7 integrin promoter = assay: muscle cell-based assay: α7βgal+/− myoblasts/myotubes, LacZ reporter, β-galactosidase cleavage of FDG; parameters: species or system mouse; details: for pEC50: read-out: EC50; for Result in α7+/− β-galactosidase assay: Myoblasts
Summary of the method: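 Primary α7βgal+/− mouse myoblasts (LacZ knocked into α7 integrin exon 1, promoter retained), differentiated; promoter activity read as β-galactosidase conversion of non-fluorescent FDG to fluorescein. Hits followed by dose-response, western analysis and myostatin counterscreen.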

α7 integrin [2] = assay: western analysis of α7 integrin in C2C12 myoblasts/myotubes; assay type: cell-based, mouse; details: C2C12 myotubes
Method: as §1
Bands were quantified using Image J software and then graphed as α7 Integrin protein levels relative to GAPDH protein levels. * denotes a significant difference in relative protein levels with **p<0.01.
The ability of laminin to regulate α7 integrin expression, α7βgal^+/− myoblasts were exposed to 0-200 nM laminin-111 for 24 hours. The activity of the α7 integrin promoter was measured by β-galactosidase cleavage of the non-fluorescent compound fluorescein di-β-D-galactopyranoside (FDG) to fluorescein. […] The ability of laminin-111 to increase α7 integrin expression was confirmed by western analysis using mouse and human DMD muscle cells (FIGS. 2A-2D).
as §2

Mdx/utr−/− mice = assay: treatment of mdx/utr−/− mice; details: mouse, in vivo

SMILES: c1ccc(-c2ccccn2)nc1 [2,2-Dipyridyl, 2,2-dipyridyl, reference compound]
α7 integrin protein (α7 integrin [1]): increased | Optimal Concentration (α7 integrin promoter): 125 μm | pEC50 (α7 integrin promoter): 4.20

SMILES: CC(C)CCC[C@@H](C)[C@H]1CC[C@H]2[C@@H]3CC(=O)[C@H]4C[C@@H](O)CC[C@]4(C)[C@H]3CC[C@]12C [5α-cholestan-3β-ol-6-one, reference compound]
α7 integrin protein (α7 integrin [1]): increased | EC100 (α7 integrin promoter): 20 µM | Optimal Concentration (α7 integrin promoter): 20 μm | pEC50 (α7 integrin promoter): 5.22

pEC50 (α7 integrin promoter; Mus musculus, enhancement of α7 integrin expression in muscle cells): 3.30
SMILES: CCCC(CCC)C(=O)O [Valproic acid, valproic acid]
α7 integrin protein (α7 integrin [2]): increased | Akt signaling pathway in muscle (Mdx/utr−/− mice): activation | fibrosis (Mdx/utr−/− mice): reduced fibrosis | mobility (Mdx/utr−/− mice): improved mobility | muscle disease (Mdx/utr−/− mice; listed as Valproic Acid): reduced muscle disease | muscle disease (Mdx/utr−/− mice; listed as valproic acid): reduced overall muscle disease | Optimal Concentration (α7 integrin promoter; enhancement of α7 integrin expression in muscle cells): 2 mM

SMILES: Cc1cc(C)c(/C=C2\C(=O)Nc3ccccc32)[nH]1 [drawing 720]
Result in α7+/− β-galactosidase assay (α7 integrin promoter; 0.5 uM): −0.06315 | Result in α7+/− β-galactosidase assay (α7 integrin promoter; 1 uM): −0.0048 | Result in α7+/− β-galactosidase assay (α7 integrin promoter; 5 uM): −0.2673 | Result in α7+/− β-galactosidase assay (α7 integrin promoter; 10 uM): −0.3421 | Result in α7+/− β-galactosidase assay (α7 integrin promoter; 20 uM): −0.3332 | Result in α7+/− β-galactosidase assay (α7 integrin promoter; 40 uM): −0.4797

SMILES: Cc1cc(C)c(/C=C2\C(=O)Nc3ccccc32)[nH]1 [drawing 721]
Result in α7+/− β-galactosidase assay (α7 integrin promoter; 0.5 uM): −0.05673 | Result in α7+/− β-galactosidase assay (α7 integrin promoter; 1 uM): −0.01961 | Result in α7+/− β-galactosidase assay (α7 integrin promoter; 5 uM): −0.2468 | Result in α7+/− β-galactosidase assay (α7 integrin promoter; 10 uM): −0.2855 | Result in α7+/− β-galactosidase assay (α7 integrin promoter; 20 uM): −0.1121 | Result in α7+/− β-galactosidase assay (α7 integrin promoter; 40 uM): −0.2422

SMILES: O=C1Nc2ccccc2/C1=C1/Nc2ccccc2/C1=N\O [drawing 722]
Result in α7+/− β-galactosidase assay (α7 integrin promoter; 0.5 uM): 0.1752 | Result in α7+/− β-galactosidase assay (α7 integrin promoter; 1 uM): 0.3255 | Result in α7+/− β-galactosidase assay (α7 integrin promoter; 5 uM): −0.404 | Result in α7+/− β-galactosidase assay (α7 integrin promoter; 10 uM): −0.681 | Result in α7+/− β-galactosidase assay (α7 integrin promoter; 20 uM): −0.6914 | Result in α7+/− β-galactosidase assay (α7 integrin promoter; 40 uM): −0.8176

SMILES: CCN(CC)CCNC(=O)c1c(C)[nH]c(CC2C(=O)Nc3ccc(F)cc32)c1C (stereo not drawn) [drawing 723]
Result in α7+/− β-galactosidase assay (α7 integrin promoter; 0.5 uM): 0.02287 | Result in α7+/− β-galactosidase assay (α7 integrin promoter; 1 uM): 0.01135 | Result in α7+/− β-galactosidase assay (α7 integrin promoter; 5 uM): −0.471 | Result in α7+/− β-galactosidase assay (α7 integrin promoter; 10 uM): −0.913 | Result in α7+/− β-galactosidase assay (α7 integrin promoter; 20 uM): −0.9852 | Result in α7+/− β-galactosidase assay (α7 integrin promoter; 40 uM): −0.9864

SMILES: Cc1[nH]c(/C=C2\C(=O)Nc3ccc([S+](=O)([O-])Cc4c(Cl)cccc4Cl)cc32)c(C)c1C(=O)C1CCCN1CN1CCCC1 (stereo not drawn) [drawing 725]
Result in α7+/− β-galactosidase assay (α7 integrin promoter; 0.5 uM): 0.05199 | Result in α7+/− β-galactosidase assay (α7 integrin promoter; 1 uM): 0.07607 | Result in α7+/− β-galactosidase assay (α7 integrin promoter; 5 uM): −0.1295 | Result in α7+/− β-galactosidase assay (α7 integrin promoter; 10 uM): −0.4121 | Result in α7+/− β-galactosidase assay (α7 integrin promoter; 20 uM): −0.9816 | Result in α7+/− β-galactosidase assay (α7 integrin promoter; 40 uM): −0.9806

SMILES: O=C1Nc2ccccc2/C1=C1/Nc2ccccc2/C1=N\O [drawing 726]
Result in α7+/− β-galactosidase assay (α7 integrin promoter; 0.5 uM): 0.07252 | Result in α7+/− β-galactosidase assay (α7 integrin promoter; 1 uM): 0.1204 | Result in α7+/− β-galactosidase assay (α7 integrin promoter; 5 uM): −0.1537 | Result in α7+/− β-galactosidase assay (α7 integrin promoter; 10 uM): −0.432 | Result in α7+/− β-galactosidase assay (α7 integrin promoter; 20 uM): −0.6932 | Result in α7+/− β-galactosidase assay (α7 integrin promoter; 40 uM): −0.758
